# In US8697637B2, “Antimicrobial peptides of the cecropin family and therapeutic uses thereof” (Institut de Recherche pour le Developpement (IRD), priority 2010, dated 2014):
# Where a SMILES comes first, the peptide text is derived from it.
# Legend:
# Type in all cases: cell-based
# [1] = tested on: Escherichia coli (Gram negative); conditions: E. coli, LB medium, 37° C., 24 hours, complete inhibition of growth
# Method: (§1) The bacteria Escherichia coli (Gram negative) and Micrococcus luteus (Gram positive) are cultivated in an LB (Luria-Bertani) culture medium with and without the peptides GK36 and MK61 to be tested. The bacterial growth is checked after incubation for one night at 37° C. by measuring the change in the absorbance value at 600 nanometres (A600) with the aid of a microplate spectrophotometer. The peptides MK61 and GK36 are incubated for 24 hours with the Gram negative and Gram positive bacteria. The minimum inhibitory concentration (MIC) of the synthetic peptides GK36 and MK61 represents the lowest peptide concentration that is sufficient to inhibit bacterial growth completely.
# (§2) The results obtained are shown in FIG. 1 for the bacterium Escherichia coli (Gram negative) and in FIG. 2 for the bacterium Micrococcus luteus (Gram positive).
# DENV-4 = test: Inhibition of the infection of C6/36 cells by the dengue virus (RT-PCR); conditions: C6/36 cells of Aedes albopictus, 5 or 10 μg/ml, 12 or 24 hours, RT-PCR bands
# Method: (§3) The C6/36 cells of Aedes albopictus mosquitoes are incubated for one hour at 4° C. with the various dengue viruses ((serotype 1) “DENV-1” or (serotype 2) “DENV-2” or (serotype 3) “DENV-3” or (serotype 4) “DENV-4”) (with “PFUs” (“plaque forming units”) of 1). The cells are then washed three times and incubated for 12 hours or 24 hours at 28° C. in the presence or absence of the peptides GK36 and MK61 to be tested, which are each prepared at concentrations of 5 μg/ml or 10 μg/ml.
# (§4) RT-PCR analyses are then carried out on the cell pellets in order to detect the presence of the dengue virus.
# DENV-1 = test: as above; conditions: C6/36 cells of Aedes albopictus, 5 or 10 μg/ml, 12 or 24 hours, RT-PCR bands
# Method: as §3, §4
# DENV-2 = test: as above; conditions: C6/36 cells of Aedes albopictus, 5 or 10 μg/ml, 12 or 24 hours, RT-PCR bands
# Method: as §3, §4
# DENV-3 = test: as above; conditions: C6/36 cells of Aedes albopictus, 5 or 10 μg/ml, 12 or 24 hours, RT-PCR bands
# Method: as §3, §4
# parasite = test: Antiparasitic activity (general statement); conditions: general statement in the description
# CHIKV-147-2 GFP virus = test: Inhibition of the infection of HEK-293T cells by chikungunya virus (GFP, flow cytometry); conditions: MOI 1, peptide at 10, 50 and 80 μg/ml, 48 hours
# Method: The cells, which come from the human cell line HEK-293T (human embryonic kidney 293), are incubated for 2 hours at 37° C. in the presence of CHIKV-147-2 GFP virus (they are infected at an “MOI” of 1) with and without the peptides GK36 and MK61 to be tested, which are each prepared at concentrations of 10 μg/ml, 50 μg/ml and 80 μg/ml. The supernatant is then withdrawn and the cells are or are not brought into contact with peptides for 48 hours. The percentage of cells infected corresponds to the percentage of GFP (“green fluorescent protein”) cells visualised by flow cytometry (10,000 cells were counted per condition).
# [2] = tested on: dengue virus serotype 2 "DENV-2"; test: Inhibition of the infection of dendritic cells by the dengue virus (real-time PCR); conditions: peptide at 2.5 μg/ml, DENV-2 MOI 0.4, 48 hours
# Method: The dendritic cells are incubated for 3 hours at 37° C. in the presence of the dengue virus (they are infected at an “MOI” (“multiplicity of infection”) of 0.4) with and without the peptides MK61 and GK36 to be tested, which are prepared at concentrations of 2.5 μg/ml and 12 μg/ml for MK61 and 2.5 μg/ml for GK36. The supernatant is then withdrawn and the cells are or are not brought into contact with peptide for 48 hours.
# Real-time PCR analyses are then carried out. The cell viability is evaluated by flow cytometry, and no cell toxicity is observed.
# [3] = tested on: Micrococcus luteus (Gram positive); test: Antibacterial test, bacterial growth in LB medium (A600), MIC; conditions: 37° C., 24 hours, complete inhibition of growth
# Method: as §1, §2
structure (smiles),measurement,setting,value
CC[C@H](C)[C@H](NC(=O)CNC(=O)[C@@H](NC(=O)[C@@H](NC(=O)[C@@H](NC(=O)[C@@H]1CCCN1C(=O)[C@H](CC(C)C)NC(=O)[C@H](C)NC(=O)[C@H](CCCCN)NC(=O)[C@H](CCC(=O)O)NC(=O)[C@H](CO)NC(=O)[C@H](C)NC(=O)[C@H](CCCCN)NC(=O)[C@H](Cc1ccccc1)NC(=O)[C@@H](NC(=O)[C@H](CCCNC(=N)N)NC(=O)[C@H](CCCCN)NC(=O)CNC(=O)[C@H](C)NC(=O)CNC(=O)[C@H](CCC(=O)O)NC(=O)[C@H](CC(C)C)NC(=O)[C@H](CCCCN)NC(=O)[C@H](CCCCN)NC(=O)CNC(=O)[C@H](CC(C)C)NC(=O)[C@H](CCCCN)NC(=O)[C@H](CCCCN)NC(=O)[C@H](CC(C)C)NC(=O)CNC(=O)CN)C(C)C)C(C)C)C(C)C)C(C)C)C(=O)N[C@@H](CCCCN)C(=O)N[C@@H](C)C(=O)N[C@H](C(=O)NCC(=O)N[C@@H](CCCCN)C(=O)O)[C@@H](C)CC [GK36] (H-GGLKKLGKKLEGAGKRVFKASEKALPVVVGIKAIGK-OH; N-terminus and C-terminus assumed),minimum inhibitory concentration (MIC),[1],0.6 µM
same,inhibition of the infection of C6/36 cells by dengue-4 virus,DENV-4,inhibit the infection
same,inhibition of the infection of C6/36 cells by dengue-1 virus,DENV-1,inhibit the infection
same,inhibition of the infection of C6/36 cells by dengue-2 virus,DENV-2,inhibit the infection
same,inhibition of the infection of C6/36 cells by dengue-3 virus,DENV-3,inhibit the infection
same,antiparasitic activity,parasite,does not exhibit antiparasitic activity
same,inhibition of the infection of HEK-293T cells,CHIKV-147-2 GFP virus,inhibits the infection of the HEK-293T cells
same,inhibition of the infection of the dendritic cells,[2],35%
same,minimum inhibitory concentration (MIC),[3],10 µM
